Source: patent publication US10004754B2, “ANP fragment adjuvant therapy to standard of care (SOC) diuretic treatment” (MADELEINE PHARMACEUTICALS PTY LTD, priority 2014, dated 2018)
Like-named read-outs stand apart in the source and are kept apart here. Where no end group is shown, it is not given here.

What was measured:
clinical = assay: clinical; design: species or system human; details: in vivo
stable CHF patients [1] = assay type: in vivo, human; details: for Diastolic Blood Pressure: baseline 65 ± 10; for Diastolic Blood Pressure / Systolic Blood Pressure: with SOC; for Systolic Blood Pressure: baseline 119 ± 15
Experimental: VSDL in the form of a white lyophilised powder (synthesised using standard protein synthesis method by Auspep Pty Ltd, Parkville, VIC, Australia), stored in an ultra-low freezer (−80° C.), was reconstituted in a vial with 10 ml of 0.9% saline (preservative free) and aseptically transferred into a 20 ml syringe (that connects to a cannula) before use.
A first study was conducted with a cohort of eight (8) test adult patients, both male and female, with a history of stable, chronic congestive heart failure and moderate renal impairment that had been selected on the basis of the following Inclusion and Exclusion criteria:
All patients underwent existing standard of care (SOC) treatment for the condition for which they presented. These treatments were diuretic therapy (ie administration with furosemide or spironolactone) and an antihypertensive drug(s) (eg an Angiotensin Converting Enzyme (ACE) inhibitor, beta blocker agent and calcium channel blocker agent). […]

stable CHF patients [2] = assay: Blood pressure during and after continuous sc VSDL infusion, Example 2; assay type: in vivo, human; details: for average drop in blood pressure, diastolic / average drop in blood pressure, systolic: during the 24 hour time period; for mean drop in blood pressure, diastolic / mean drop in blood pressure, systolic: throughout the 12 hour infusion period
Experimental: (§1) A second study was conducted with a population of eighteen (18) test adult CHF patients, both male and female, in order to further evaluate the improvement in renal and cardiac function in stable CHF patients given VSDL (by sc administration) in addition to standard of care (SOC) treatment.
(§2) Participants were selected on the basis of the Inclusion and Exclusion criteria given in Example 1. […] In addition, selected patients were required to have a plasma brain natriuretic peptide (BNP) concentration of ≥100 pg/mL and a GFR ≥25 mL/min and <70 mL/min as calculated by the Cockroft Gault calculation (ie moderate renal impairment). On the other hand, the presence of acute MI (ie as indicated by ST elevation and/or elevation of Troponin-T) or evidence of MI or other high risk acute coronary syndrome within the past 6 weeks, hypotension (ie systolic blood pressure (SBP) <90 mmHg), persistent and/or uncontrolled hypertension (SBP>180 mmHg), cardiogenic shock or any other clinical condition that would contraindicate administration of an agent with potent vasodilatory effects, excluded patients from participating in the study. Participants in this study also had standard exclusion criteria that accompany pulmonary artery (SG) catheterisation.
(§3) The study was an open-label, sequential group, continuous sc infusion study conducted at a single centre. Two steady-state concentration levels (Css) of VSDL were targeted, approximately 10 ng/mL (n=2 lead-in, and n=10, cohort 1) and 20 ng/mL (n=6, cohort 2). The two lead-in patients were treated with similar dose regimens to confirm that the measured plasma concentrations were in agreement with the targeted Css. Two patients from cohort 1 and all 6 patients from cohort 2 underwent pulmonary artery Swan-Ganz (SG) catheterisation to enable haemodynamic monitoring.
(§4) VSDL prepared as described in Example 1, was administered via sc 6 or 12 hour infusion into the lower abdomen at a maximum volume rate of 350 μL/hr (ie approximately 6 μL/min). The rate of infusion of VSDL for the targeted Css level of 10 ng/mL was either 900 μg/hr (0.3 mL/hr) for 12 hrs or a bimodal infusion of 900 μg/hr for 5 hrs followed by 550 μg/hr (0.18 mL/hr) for 7 hrs. The rate of infusion of VSDL for the targeted Css level of 20 ng/mL was bimodal; 1800 μg/hr (0.20 mL/hr) for 5 hrs followed by 1100 μg/hr (0.12 mL/hr) for 7 hrs (see WO 2014/138796). For the lead-in patients, the infusions were performed at 900 μg/hr for 6 hrs.
(§5) R Studio (version 4) and GraphPad Prism (GraphPad Software, version 6) were used for all statistical analyses. Statistically significant changes from base line for all parameters were tested using with linear mixed effects model or one-way repeated measures ANOVA with Bonferroni correction. A p value of 0.05 was set for statistically significant differences. All data are reported as mean±s.d or mean (95% CI).

stable CHF patients [3] = assay: Cardiovascular haemodynamics (Swan-Ganz catheterisation) with sc VSDL infusion, Example 2; assay type: in vivo, human; details: for Cardiac Output, Mean / Cardiac Output, Median: baseline 4.7; for systemic vascular resistance: baseline=3076+929
Experimental: as §1, §2, §3, §4, §5

[4] = lead-in patients, 900 μg/hr sc for 6 hours, up to 24 hours post infusion
[5] = patients with baseline blood pressures ≤105/60 mmHg, during the infusion

EVVPPQVLSEPNEEAGAALSPLPEVPPWTGEVSPAQR [VSDL]
bioavailability (clinical; both sexes, human, sc): 19.2%
CL Maximum Elimination rate, Pop value (clinical; human, sc): 26.8 L/h
F Bioavailability, Pop value (clinical; human, sc): 26.894%
ETASHARE Random effect scalinmg factor, Pop value (clinical): 1.000 ratio
RUVADDIV Residual Error (Additive, I.V.), Pop value (clinical; iv): 0.248 ng/mL
RUVCVIV Residual Error (Proportional, I.V.), Pop value (clinical; iv): 0.336 ratio
FVOL Infused volume on F, Pop value (clinical; sc): 1.590 ratio
KA Absorption rate constant, Pop value (clinical; sc): 0.625 h⁻¹
LGT Logit F value, Pop value (clinical; sc): −1.00
RUVADDSC Residual Error (Additive, S.C.), Pop value (clinical; sc): 0.070 ng/mL
RUVCVSC Residual Error (Proportional, S.C.), Pop value (clinical; sc): 0.259 Ratio
V2 S.C. bolus V scaling factor, Pop value (clinical; sc): 1.62 ratio
V3 S.C. infusion V scaling factor, Pop value (clinical; sc): 3.65 ratio
V Central volume, Pop value (clinical; sc): 13.20 L
Diastolic Blood Pressure (stable CHF patients [1]; 10 ng/kg column): 64 ± 7 mmHg
Systolic Blood Pressure (stable CHF patients [1]; 10 ng/kg column): 122 ± 10 mmHg
Diastolic Blood Pressure (stable CHF patients [1]; 20 ng/kg column): 65 ± 6 mmHg
Systolic Blood Pressure (stable CHF patients [1]; 20 ng/kg column): 115 ± 19 mmHg
symptomatic hypotension (stable CHF patients [1]; human, in vivo, sc): none of these resulted in symptomatic hypotension
change in systolic and diastolic blood pressures (stable CHF patients [1]; stable CHF patients, sc bolus VSDL with SOC, p < 0.05): significant drop
Diastolic Blood Pressure (stable CHF patients [2]; 10 ng/ml cohort, 0.5-6 hs, baseline 61 ± 8): 64 ± 8 mmHg
Systolic Blood Pressure (stable CHF patients [2]; 10 ng/ml cohort, 0.5-6 hs, baseline 116 ± 10): 121 ± 11 mmHg
Diastolic Blood Pressure (stable CHF patients [2]; 10 ng/ml cohort, >6-12 hs, baseline 61 ± 8): 65 ± 7 mmHg
Systolic Blood Pressure (stable CHF patients [2]; 10 ng/ml cohort, >6-12 hs, baseline 116 ± 10): 125 ± 10 mmHg
Diastolic Blood Pressure (stable CHF patients [2]; 10 ng/ml cohort, >12-24 hs, baseline 61 ± 8): 62 ± 7 mmHg
Systolic Blood Pressure (stable CHF patients [2]; 10 ng/ml cohort, >12-24 hs, baseline 116 ± 10): 118 ± 10 mmHg
average drop in blood pressure, diastolic (stable CHF patients [2]; 10 ng/ml cohort): −5 mmHg
average drop in blood pressure, systolic (stable CHF patients [2]; 10 ng/ml cohort): −8 mmHg
mean drop in blood pressure, diastolic (stable CHF patients [2]; 10 ng/ml cohort): −6 mmHg
mean drop in blood pressure, systolic (stable CHF patients [2]; 10 ng/ml cohort): −8 mmHg
Diastolic Blood Pressure (stable CHF patients [2]; 20 ng/ml cohort, 0.5-6 hs, baseline 71 ± 12): 66 ± 6 mmHg
Systolic Blood Pressure (stable CHF patients [2]; 20 ng/ml cohort, 0.5-6 hs, baseline 124 ± 21): 116 ± 17 mmHg
Diastolic Blood Pressure (stable CHF patients [2]; 20 ng/ml cohort, >6-12 hs, baseline 71 ± 12): 67 ± 6 mmHg
Systolic Blood Pressure (stable CHF patients [2]; 20 ng/ml cohort, >6-12 hs, baseline 124 ± 21): 118 ± 20 mmHg
Diastolic Blood Pressure (stable CHF patients [2]; 20 ng/ml cohort, >12-24 hs, baseline 71 ± 12): 64 ± 6 mmHg
Systolic Blood Pressure (stable CHF patients [2]; 20 ng/ml cohort, >12-24 hs, baseline 124 ± 21): 116 ± 21 mmHg
average drop in blood pressure, diastolic (stable CHF patients [2]; 20 ng/ml cohort): −8 mmHg
average drop in blood pressure, systolic (stable CHF patients [2]; 20 ng/ml cohort): −13 mmHg
mean drop in blood pressure, diastolic (stable CHF patients [2]; 20 ng/ml cohort): −7 mmHg
mean drop in blood pressure, systolic (stable CHF patients [2]; 20 ng/ml cohort): −14 mmHg
drops in mean blood pressures from baseline, based on post infusion time (stable CHF patients [2]; all VSDL-treated patients, p=0.4): no significant drops
systolic and diastolic blood pressures, regression on concentration of VSDL (stable CHF patients [2]; at higher VSDL concentrations, p=0.005, FIGS. 5A and B): significant decrease
change in blood pressure (stable CHF patients [2]; lead-in patients, 900 μg/hr sc for 6 hours): no significant change
mean diastolic blood pressure (stable CHF patients [2]; [4]): 66±3 mmHg
mean systolic blood pressure (stable CHF patients [2]; [4]): 114±6 mmHg
Diastolic Blood Pressure (stable CHF patients [2]; patients with BP ≤ 105 mmHg, 0.5-6 hs, baseline 57 ± 6): 61 ± 7 mmHg
Systolic Blood Pressure (stable CHF patients [2]; patients with BP ≤ 105 mmHg, 0.5-6 hs, baseline 97 ± 8): 106 ± 17 mmHg
Diastolic Blood Pressure (stable CHF patients [2]; patients with BP ≤ 105 mmHg, >6-12 hs, baseline 57 ± 6): 64 ± 8 mmHg
Systolic Blood Pressure (stable CHF patients [2]; patients with BP ≤ 105 mmHg, >6-12 hs, baseline 97 ± 8): 113 ± 25 mmHg
Diastolic Blood Pressure (stable CHF patients [2]; patients with BP ≤ 105 mmHg, >12-24 hs, baseline 57 ± 6): 62 ± 6 mmHg
Systolic Blood Pressure (stable CHF patients [2]; patients with BP ≤ 105 mmHg, >12-24 hs, baseline 97 ± 8): 109 ± 20 mmHg
drop in blood pressures (stable CHF patients [2]; patients with baseline blood pressures ≤105/60 mmHg): no significant drop
average blood pressure drop, diastolic (stable CHF patients [2]; [5]): −3 mmHg
average blood pressure drop, systolic (stable CHF patients [2]; [5]): −4 mmHg
Cardiac Output, Mean (stable CHF patients [3]; >0.5-6 hrs): 4.6 L/min
Cardiac Output, Median (stable CHF patients [3]; >0.5-6 hrs): 4.2 L/min
Cardiac Output, Mean (stable CHF patients [3]; >6-12 hrs): 4.9 L/min
Cardiac Output, Median (stable CHF patients [3]; >6-12 hrs): 4.3 L/min
Cardiac Output, Mean (stable CHF patients [3]; >12-24 hrs): 5.0 L/min
Cardiac Output, Median (stable CHF patients [3]; >12-24 hrs): 4.4 L/min
pulmonary capillary wedge pressure (stable CHF patients [3]; adjuvant VSDL treatment, limited patient numbers to date): either decreased or unchanged
pulmonary vascular resistance (stable CHF patients [3]; infusion of VSDL): no changes
increase in cardiac output on average above baseline (regression of cardiac output on time) (stable CHF patients [3]; t=3.16, p≤0.05, FIG. 1): 0.000472 L/min
systemic vascular resistance (stable CHF patients [3]; ≥0.5-6 hs): 2658+676 dyn·s/cm^5
systemic vascular resistance (stable CHF patients [3]; ≥6-12 hs): 2529+509 dyn·s/cm^5
systemic vascular resistance (stable CHF patients [3]; ≥12-24 hs): 2485+645 dyn·s/cm^5
